# Reference: ChEMBL document CHEMBL1147986, “Minimum structure requirement of immunomodulatory glycolipids for predominant Th2 cytokine induction and the discovery of non-linear phytosphingosine analogs” (2007)
# Tests used:
# [1] = Induction of IL4 secretion in C57BL/6 mouse spleen cells at 100 ng/ml after 72 hrs relative to OCH; assay type: functional
# [2] = Induction of IFN gamma secretion in C57BL/6 mouse spleen cells at 100 ng/ml after 72 hrs relative to OCH; assay type: functional
SMILES,Activity [1],Activity [2]
CCCCCCCCCCCCCCCCCCCCCCCC(=O)N[C@@H](CO[C@H]1O[C@H](CO)[C@H](O)[C@H](O)[C@H]1O)[C@H](O)[C@H](O)CC,102%,81%
CCCCCCCCCCCCCCCCCCCCCCCCC(=O)N[C@@H](CO[C@H]1O[C@H](CO)[C@H](O)[C@H](O)[C@H]1O)[C@H](O)[C@@H](O)CCCCC,154%,103%
CCCCCCCCCCCCCCCCCCCCCCCC(=O)N[C@@H](CO[C@H]1O[C@H](CCl)[C@H](O)[C@H](O)[C@H]1O)[C@H](O)[C@H](O)Cc1ccccc1,211%,284%
CCCCCCCCCCCCCCCCCCCC(=O)N[C@@H](CO[C@H]1O[C@H](CO)[C@H](O)[C@H](O)[C@H]1O)[C@H](O)[C@H](O)CCCCC,6%,9%
CCCCCCCCCCCCCCCCCCCCCCCCCC(=O)N[C@@H](CO[C@H]1O[C@H](CO)[C@H](O)[C@H](O)[C@H]1O)[C@H](O)[C@H](O)CCCCCCCCCCCCCC [RGI-7000],128%,569%
CCCCCCCCCCCCCCCCCCCCCCCC(=O)N[C@@H](CO[C@H]1O[C@H](CCl)[C@H](O)[C@H](O)[C@H]1O)[C@H](O)[C@H](O)CC1CCCC1,98%,74%
CCCCCCCCCCCCCCCCCCCCCCCC(=O)N[C@@H](CO[C@H]1O[C@H](CO)[C@H](O)[C@H](O)[C@H]1O)[C@H](O)[C@H](O)CCC,105%,96%
CCCCCCCCCCCCCCCCCCCCCCCC(=O)N[C@@H](CO[C@H]1O[C@H](CO)[C@H](O)[C@H](O)[C@H]1O)[C@H](O)[C@H](O)CCCC,115%,112%
CCCCCCCCCCCCCCCCCCCCCCCCCC(=O)N[C@@H](CO[C@H]1O[C@H](CO)[C@H](O)[C@H](O)[C@H]1O)[C@H](O)[C@H](O)CCCCC,129%,504%
CCCCCCCCCCCCCCCCCCCCCCCC(=O)N[C@@H](CO[C@H]1O[C@H](CO)[C@H](O)[C@H](O)[C@H]1O)[C@H](O)[C@H](O)CCCCC,100%,100%
CCCCCCCCCCCCCCCCCCCCCCCCCCCC(=O)N[C@@H](CO[C@H]1O[C@H](CO)[C@H](O)[C@H](O)[C@H]1O)[C@H](O)[C@H](O)CCCCC,178%,761%
CCCCCCCCCCCCCCCCCCCCCC(=O)N[C@@H](CO[C@H]1O[C@H](CO)[C@H](O)[C@H](O)[C@H]1O)[C@H](O)[C@H](O)CCCCC,51%,46%
CCCCCCCCCCCCCCCCCCCCCCC(=O)N[C@@H](CO[C@H]1O[C@H](CO)[C@H](O)[C@H](O)[C@H]1O)[C@H](O)[C@H](O)CCCCC,103%,93%
